Experimental data reported in patent US20190053492A1, “SUBSTITUTED PYRIDINE COMPOUNDS AS PESTICIDES” (Bayer CropScience Aktiengesellschaft, priority 2016, published 2019).
Where two headings read alike, the source gives them in different places.

How the values were obtained:
Phaedon cochleariae = Phaedon cochleariae spray test; format: in vivo; conditions: after 7 days, Chinese cabbage leaf discs
Method: Phaedon cochleariae—Spray Test
Solvent: 78.0 parts by weight of acetone • • 1.5 parts by weight of dimethylformamide
Emulsifier: alkylaryl polyglycol ether
To produce a suitable active ingredient formulation, 1 part by weight of active ingredient is dissolved with the specified parts by weight of solvent and made up with water containing an emulsifier concentration of 1000 ppm until the desired concentration is attained. To produce further test concentrations, the formulation is diluted with emulsifier-containing water.
Discs of Chinese cabbage leaves (Brassica pekinensis) are sprayed with an active ingredient formulation of the desired concentration and, after drying, populated with larvae of the mustard beetle (Phaedon cochleariae).
After 7 days, the efficacy in % is determined. 100% means that all the beetle larvae have been killed; 0% means that no beetle larvae have been killed.

[1] = log P by HPLC on reversed-phase column (C 18), EEC Directive 79/831 Annex V.A8; format: physicochemical; conditions: 55° C.; for LOGP_HCOOH: log P (HCOOH); for LOGP_NEUTRAL: log P, neutral range; for chromatographic logP: reversed-phase HPLC column (C 18)
Method: Temperature: 55° C. […] Called log P (HCOOH) in the table. […] Called log P (neutral) in the table.

Spodoptera frugiperda = Spodoptera frugiperda spray test; format: in vivo; conditions: after 7 days, maize leaf discs
In short: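 Maize leaf discs were sprayed with compound formulated in acetone/DMF and emulsifier-containing water, dried, then infested with Spodoptera frugiperda caterpillars. Percent kill was scored after 7 days, from 100% (all dead) to 0% (none dead).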

[2] = acidic range pH 2.7, 0.1% aqueous formic acid and acetonitrile, reversed-phase column (C 18)
[3] = HPLC on reversed-phase column (C 18)
[4] = acidic range at pH 2.7, 0.1% aqueous formic acid and acetonitrile, HPLC on reversed-phase column (C 18)

CC(C)C(=O)Nc1cc(-c2ccc(C(F)(F)F)cc2)cc(C(=O)NCc2cc(F)c(C#N)cc2F)n1 [Example I-071]
efficacy (beetle larvae killed) (Phaedon cochleariae; application rate 500 g/ha): 83% | LOGP_HCOOH [1, 2]: 4.23 | LOGP_NEUTRAL [1, 3]: 4.08 | efficacy (caterpillars killed) (Spodoptera frugiperda; application rate 100 g/ha): 100% | efficacy (caterpillars killed) (Spodoptera frugiperda; application rate 500 g/ha): 100%

N#Cc1cc(F)c(CNC(=O)c2cc(-c3ccc(OC(F)(F)F)cc3)cc(NC(=O)C3CC3)n2)cc1F [Example I-086]
efficacy (beetle larvae killed) (Phaedon cochleariae; application rate 500 g/ha): 100% | LOGP_HCOOH [1, 2]: 4.15 | LOGP_NEUTRAL [1, 3]: 4.02 | efficacy (caterpillars killed) (Spodoptera frugiperda; application rate 100 g/ha): 100% | efficacy (caterpillars killed) (Spodoptera frugiperda; application rate 500 g/ha): 83%

CC(C)C(=O)Nc1cc(-c2ccc(C(F)(F)F)cc2)cc(C(=O)NC(C)c2ccc(C#N)cc2)n1 (centres unmarked) [Example I-087]
efficacy (beetle larvae killed) (Phaedon cochleariae; application rate 500 g/ha): 83% | LOGP_HCOOH [1, 2]: 4.20 | LOGP_NEUTRAL [1, 3]: 4.15 | efficacy (caterpillars killed) (Spodoptera frugiperda; application rate 100 g/ha): 100% | efficacy (caterpillars killed) (Spodoptera frugiperda; application rate 500 g/ha): 100%

N#Cc1ccc(CNC(=O)c2cc(-c3ccc(SC(F)(F)F)cc3)cc(NC(=O)C3CC3)n2)cn1 [Example I-090]
efficacy (beetle larvae killed) (Phaedon cochleariae; application rate 500 g/ha): 100% | LOGP_HCOOH [1, 2]: 3.79 | LOGP_NEUTRAL [1, 3]: 3.72 | efficacy (caterpillars killed) (Spodoptera frugiperda; application rate 100 g/ha): 83% | efficacy (caterpillars killed) (Spodoptera frugiperda; application rate 500 g/ha): 100%

Cc1cc(OC(F)(F)F)ccc1-c1cc(NC(=O)C2CC2)nc(C(=O)NCc2ccc(C#N)cc2)c1 [Example I-099]
efficacy (beetle larvae killed) (Phaedon cochleariae; application rate 100 g/ha): 100% | efficacy (beetle larvae killed) (Phaedon cochleariae; application rate 500 g/ha): 100% | LOGP_HCOOH [1, 2]: 4.03 | LOGP_NEUTRAL [1, 3]: 3.95 | efficacy (caterpillars killed) (Spodoptera frugiperda; application rate 100 g/ha): 100% | efficacy (caterpillars killed) (Spodoptera frugiperda; application rate 500 g/ha): 100%

O=C(NC1CC1)c1cc(-c2ccc(S(=O)(=O)C(F)(F)F)cc2)cc(NC(=O)C2CC2)n1 [Example I-103]
efficacy (beetle larvae killed) (Phaedon cochleariae; application rate 500 g/ha): 100% | LOGP_HCOOH [1, 2]: 3.28 | LOGP_NEUTRAL [1, 3]: 3.17 | efficacy (caterpillars killed) (Spodoptera frugiperda; application rate 500 g/ha): 100%

N#Cc1ccc(CNC(=O)c2cc(-c3ccc(OC(F)(F)F)cc3)cc(NC(=O)C3CC3)n2)nc1 [Example I-106]
efficacy (beetle larvae killed) (Phaedon cochleariae; application rate 100 g/ha): 100% | LOGP_HCOOH [1, 2]: 3.42 | LOGP_NEUTRAL [1, 3]: 3.33 | efficacy (caterpillars killed) (Spodoptera frugiperda; application rate 100 g/ha): 80% | efficacy (caterpillars killed) (Spodoptera frugiperda; application rate 500 g/ha): 100%

N#Cc1c(F)cc(CNC(=O)c2cc(-c3ccc(OC(F)(F)F)cc3)cc(NC(=O)C3CC3)n2)cc1F [Example I-111]
efficacy (beetle larvae killed) (Phaedon cochleariae; application rate 100 g/ha): 100% | efficacy (beetle larvae killed) (Phaedon cochleariae; application rate 500 g/ha): 100% | LOGP_HCOOH [1, 4]: 4.18 | LOGP_NEUTRAL [1, 3]: 4.02 | efficacy (caterpillars killed) (Spodoptera frugiperda; application rate 100 g/ha): 100% | efficacy (caterpillars killed) (Spodoptera frugiperda; application rate 500 g/ha): 100%

O=C(NCc1ccc(-c2nnco2)cc1)c1cc(-c2ccc(OC(F)(F)F)cc2)cc(NC(=O)C2CC2)n1 [Example I-112]
efficacy (beetle larvae killed) (Phaedon cochleariae; application rate 500 g/ha): 100% | LOGP_HCOOH [1, 4]: 3.41 | LOGP_NEUTRAL [1, 3]: 3.37 | efficacy (caterpillars killed) (Spodoptera frugiperda; application rate 100 g/ha): 83% | efficacy (caterpillars killed) (Spodoptera frugiperda; application rate 500 g/ha): 100%

Cn1ncc2cc(CNC(=O)c3cc(-c4ccc(OC(F)(F)F)cc4)cc(NC(=O)C4CC4)n3)cnc21 [Example I-114]
efficacy (beetle larvae killed) (Phaedon cochleariae; application rate 500 g/ha): 100% | LOGP_HCOOH [1, 4]: 3.33 | LOGP_NEUTRAL [1, 3]: 3.23 | efficacy (caterpillars killed) (Spodoptera frugiperda; application rate 100 g/ha): 83% | efficacy (caterpillars killed) (Spodoptera frugiperda; application rate 500 g/ha): 100%

N#Cc1ccc(CNC(=O)c2cc(-c3ncc(C(F)(F)F)cc3Cl)cc(NC(=O)C3CC3)n2)cc1 [Example I-119]
efficacy (beetle larvae killed) (Phaedon cochleariae; application rate 100 g/ha): 100% | efficacy (beetle larvae killed) (Phaedon cochleariae; application rate 500 g/ha): 100% | LOGP_HCOOH [1, 4]: 3.53 | LOGP_NEUTRAL [1, 3]: 3.35 | efficacy (caterpillars killed) (Spodoptera frugiperda; application rate 100 g/ha): 100% | efficacy (caterpillars killed) (Spodoptera frugiperda; application rate 500 g/ha): 100%

N#Cc1ccc(CNC(=O)c2cc(-c3ccc(C(F)(F)F)nc3)cc(NC(=O)C3CC3)n2)cc1 [Example I-123, N-(4-Cyanobenzyl)-6′-[(cyclopropylcarbonyl)amino]-6-(trifluoromethyl)-3,4′-bipyridine-2′-carboxamide]
pest or weed control at 500 g/ha (Phaedon cochleariae; Phaedon cochleariae, foliar, 168 h, application rate 500 g/ha, read-out: efficacy (beetle larvae killed)): 100% | LOGP_NEUTRAL [1, 3]: 2.99 | chromatographic logP ([1]; pH 2.7, LC-MS acidic range, pH 2.7, 0.1% formic acid/acetonitrile, read-out: log P (acidic) / log P (HCOOH)): 3.02 | chromatographic logP ([1]; pH 2.7, log P (HCOOH), acidic range at pH 2.7, 0.1% aqueous formic acid and acetonitrile, HPLC on reversed-phase column (C 18), read-out: LOGP_HCOOH): 3.13 | pest or weed control at 500 g/ha (Spodoptera frugiperda; Spodoptera frugiperda, foliar, 168 h, application rate 500 g/ha, read-out: efficacy (caterpillars killed)): 100%

O=C(Cc1ccc(Br)cc1)Nc1cc(-c2ccc(OC(F)(F)F)cc2)cc(C(=O)NC2CC2)n1 [Example I-125]
efficacy (beetle larvae killed) (Phaedon cochleariae; application rate 500 g/ha): 100% | LOGP_HCOOH [1, 4]: 4.46 | LOGP_NEUTRAL [1, 3]: 4.20 | efficacy (caterpillars killed) (Spodoptera frugiperda; application rate 100 g/ha): 100% | efficacy (caterpillars killed) (Spodoptera frugiperda; application rate 500 g/ha): 100%

C#CC1(NC(=O)c2cc(-c3ccc(OC(F)(F)F)cc3)cc(NC(=O)C3CC3)n2)CC1 [Example I-126]
efficacy (beetle larvae killed) (Phaedon cochleariae; application rate 500 g/ha): 100% | LOGP_HCOOH [1, 4]: 3.63 | efficacy (caterpillars killed) (Spodoptera frugiperda; application rate 100 g/ha): 83% | efficacy (caterpillars killed) (Spodoptera frugiperda; application rate 500 g/ha): 100%
